In the supplement of paper PMC10307832:

Tests used:
Assay in all cases: relative viability (nuclei count vs DMSO), 5 days (fraction); higher = more cells survive
Olaparib + Luminespib = compound: O=C(c1cc(Cc2n[nH]c(=O)c3ccccc23)ccc1F)N1CCN(C(=O)C2CC2)CC1 [Olaparib] + CCNC(=O)c1noc(-c2cc(C(C)C)c(O)cc2O)c1-c1ccc(CN2CCOCC2)cc1 [Luminespib] (partner 0.01 µM)
Method in brief: (§1)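 One day after seeding in 1536-well plates, lung cancer cell lines were dosed by pin tool. Dosing was either single-drug or a fixed anchor-drug dose plus five library-drug doses (not always all listed) in √10 steps. After 5 days, nuclei were stained in one fix-and-stain step and counted on 4× images, and relative viability is the nuclei count of treated wells over that of vehicle wells, given as the median of duplicate plates.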

Crizotinib + AZD7762 = compound: C[C@@H](Oc1cc(-c2cnn(C3CCNCC3)c2)cnc1N)c1c(Cl)ccc(F)c1Cl [Crizotinib] + NC(=O)Nc1cc(-c2cccc(F)c2)sc1C(=O)N[C@H]1CCCNC1 [AZD7762] (partner 0.2 µM)
Method in brief: as §1

Crizotinib + Alpelisib = compound: C[C@@H](Oc1cc(-c2cnn(C3CCNCC3)c2)cnc1N)c1c(Cl)ccc(F)c1Cl [Crizotinib] + Cc1nc(NC(=O)N2CCC[C@H]2C(N)=O)sc1-c1ccnc(C(C)(C)C(F)(F)F)c1 [Alpelisib] (partner 2 µM)
Method in brief: as §1

Olaparib + Trametinib = compound: O=C(c1cc(Cc2n[nH]c(=O)c3ccccc23)ccc1F)N1CCN(C(=O)C2CC2)CC1 [Olaparib] + CC(=O)Nc1cccc(-n2c(=O)n(C3CC3)c(=O)c3c(Nc4ccc(I)cc4F)n(C)c(=O)c(C)c32)c1 [Trametinib] (partner 0.02 µM)
Method in brief: as §1

Cell Line	relative viability (Olaparib + Luminespib; first compound 0.08 µM)	relative viability (Olaparib + Luminespib; first compound 0.253 µM)	relative viability (Olaparib + Luminespib; first compound 2.53 µM)	relative viability (Olaparib + Luminespib; first compound 8 µM)	relative viability (Crizotinib + AZD7762; first compound 0.01 µM)	relative viability (Crizotinib + AZD7762; first compound 0.03162 µM)	relative viability (Crizotinib + AZD7762; first compound 0.1 µM)	relative viability (Crizotinib + AZD7762; first compound 1 µM)	relative viability (Crizotinib + Alpelisib; first compound 0.01 µM)	relative viability (Crizotinib + Alpelisib; first compound 0.03162 µM)	relative viability (Crizotinib + Alpelisib; first compound 0.1 µM)	relative viability (Crizotinib + Alpelisib; first compound 1 µM)	relative viability (Olaparib + Trametinib; first compound 0.08 µM)	relative viability (Olaparib + Trametinib; first compound 0.253 µM)	relative viability (Olaparib + Trametinib; first compound 2.53 µM)	relative viability (Olaparib + Trametinib; first compound 8 µM)	relative viability (Crizotinib + AZD7762; first compound 0.3162 µM)	relative viability (Crizotinib + Alpelisib; first compound 0.3162 µM)
LC-2-ad	1.11	0.865	0.765	0.811	0.779	0.854	0.846	0.853	0.839	0.981	1.01	0.895	0.877	0.819	0.894	0.809		
LCLC-97TM1	0.756	0.651	0.712	0.637	0.193	0.138	0.252	0.339	0.199	0.232	0.24	0.273	0.237	0.165	0.215	0.203	0.104	0.265
LCLC-103H	1.21	0.805	1.19	0.769	0.798	0.78	0.877	0.804	0.917	0.98	1.05	1.01	0.669	0.689	0.679	0.652	0.839	1.13
LK-2	0.176	0.212	0.214	0.181	0.533	0.293	0.341	0.398	1.14	0.885	0.898	1.14	0.887	0.701	0.888	0.788	0.204	1.3
LOU-NH91	0.341	0.36	0.346	0.332	0.778	0.82	0.796	0.716	0.648	0.682	0.72	0.742	0.862	0.782	0.793	0.825	0.719	0.707
LU99A	0.249	0.254	0.21	0.206	0.276	0.362	0.34	0.407	0.549	0.501	0.508	0.558	0.525	0.535	0.473	0.466	0.32	0.442
LXF-289	0.784	0.635	0.721	0.567	1.05	1.11	1.16	1.19	0.968	1.07	1.01	1.03	0.737	0.674	0.771	0.847	1	0.987
NCI-H23	0.229	0.211	0.2	0.186	0.281	0.323	0.297	0.261	0.691	0.662	0.572	0.724	0.402	0.439	0.385	0.368		
NCI-H322M	0.98	0.821	0.906	0.527		0.575	0.609	0.584	0.791		0.773	0.789	0.496	0.57	0.577	0.523	0.547	0.916
NCI-H358	0.324	0.253	0.24	0.206		0.533	0.469	0.492	0.81	0.802	0.798	0.759	0.13	0.147	0.145	0.12	0.458	0.852
NCI-H441	0.38	0.314	0.318	0.281	0.998	1.03	1.12	1.21	0.795	0.648	0.859	0.711	0.548	0.442	0.382	0.447	1.09	
NCI-H460	0.0349	0.0392	0.0354	0.034	0.592	0.64	0.665	0.607	0.495	0.404	0.46	0.442	0.115	0.0823	0.121	0.0533		0.504
NCI-H596	0.93	0.883	0.788	0.638	1.05	1.01	1.03	1.16	0.396	0.528	0.509	0.481	0.789	0.719	0.82	0.637		0.564
NCI-H647	0.126	0.186	0.15	0.121	0.444	0.626	0.403	0.595	1.08	1.16	1.02	1.01	0.471	0.424	0.54	0.523	0.394	0.933
NCI-H650	0.924	0.816	0.577	0.533	1.03	0.979	0.815	0.945	0.955	1.2	1.06	1.17	0.893	0.939	0.915	0.782		1.06
NCI-H727	0.446	0.531	0.461	0.346	0.566	0.568	0.567	0.661	0.655	0.575	0.583	0.685	0.415	0.363	0.37	0.349	0.433	0.674
NCI-H838	0.332	0.218	0.229	0.219	0.975	0.919	0.969	0.974	0.997		1.03	0.964	0.585	0.493	0.536	0.547	0.9	
NCI-H1355	0.648	0.694	0.52	0.572	0.678	0.707	0.867	0.769	0.832	0.806	0.857	0.878	0.385	0.433	0.481	0.476	0.675	0.849
